The record followed here is patent publication US20060079453A1, “Hla binding peptides and their uses” (priority 2002, published 2006).

A word on the IC50: it is the concentration that gives 50% inhibition.

Targets include HLA-A*6802 (Homo sapiens, UniProt P04439, A269V/D140Y/D185E/E176V/E277Q/E87N/F33Y/G231S/I121R/I166T/I218V/L180W/L300P/L318F/N151K/P208A/P217A/Q86R/R138H/R169H/S129P/T345S/V36M); HLA-A*0202 (Homo sapiens, UniProt P04439, D140Y/D185E/D98H/E176V/E277Q/G131W/G231S/I119L/I121R/I166T/I218V/L180W/L300P/L318F/N151K/N90K/P208A/P217A/Q67R/Q86G/Q94H/R138H/R169H/T345S); HLA-A*0201 (Homo sapiens, UniProt P04439, D140Y/D185E/D98H/E176V/E277Q/G131W/G231S/I119V/I121R/I166T/I218V/L300P/L318F/N151K/N90K/P208A/P217A/Q86G/Q94H/R138H/R169H/T345S); HLA-A*0206 (Homo sapiens, UniProt P04439, D140Y/D185E/D98H/E176V/E277Q/F33Y/G131W/G231S/I119V/I121R/I166T/I218V/L300P/L318F/N151K/N90K/P208A/P217A/Q86G/Q94H/R138H/R169H/T345S); HLA-A*0203 (Homo sapiens, UniProt P04439, A173T/D140Y/D185E/D98H/E277Q/G131W/G231S/I119V/I121R/I166T/I218V/L180W/L300P/L318F/N151K/N90K/P208A/P217A/Q86G/Q94H/R138H/R169H/T345S).

What all share (assay): biochemical
Assay type in all cases: binding

Where [1] appears, read: A*6802 binding affinity (expressed as an IC50).
Where [2] appears, read: A*0202 binding affinity (expressed as an IC50).
[3] abbreviates: A*0201 binding affinity (expressed as an IC50).
[4] abbreviates: A*0206 binding affinity (expressed as an IC50).
[5] abbreviates: A*0203 binding affinity (expressed as an IC50).

Where two headings read alike, the source gives them in different places. No end group written: not given here.

With WLSGPGPGV, the IC50 at HLA-A*6802 (setting [1]) is 24 nM; on HLA-A*0202 (setting [2]), 2.5 nM; at HLA-A*0201 (setting [3]), 220 nM; on HLA-A*0206 (setting [4]) it was 885 nM; at HLA-A*0203 (setting [5]), 12 nM.
The corresponding values for VLVHPQWVV are 14600 nM, 65 nM, 464 nM, 3220 nM and 1990 nM.
With GLGAVSRDL, the IC50 against HLA-A*6802 is above 16700 nM; at HLA-A*0202 it was 436 nM; on HLA-A*0201, 18700 nM; at HLA-A*0206, above 10400 nM; against HLA-A*0203 it was 1730 nM.
For the molecule VLRLFVCFLI, the IC50 was 45600 nM on HLA-A*6802 (setting [1]); 2110 nM at HLA-A*0202 (setting [2]); 2740 nM on HLA-A*0201 (setting [3]); 68200 nM at HLA-A*0206 (setting [4]); 299 nM at HLA-A*0203 (setting [5]).
Take GVLGWSPQV: the IC50 is 9430 nM against HLA-A*6802; 157 nM against HLA-A*0202; 22 nM against HLA-A*0201; 28 nM on HLA-A*0206; 389 nM against HLA-A*0203.
For the molecule `CC(C)C[C@H](NC(=O)[C@H](CCCNC(=N)N)NC(=O)[C@H](CC(C)C)NC(=O)[C@@H](NC(=O)[C@H](C)NC(=O)[C@@H](NC(=O)CNC(=O)[C@H](CC(=O)O)NC(=O)[C@H](CC(C)C)NC(=O)[C@@H](N)CC(C)C)[C@@H](C)O)[C@@H](C)O)C(=O)O`, the IC50 at HLA-A*6802 (setting [1]) is above 421000 nM; at HLA-A*0202 (setting [2]), 1.9 nM; on HLA-A*0201 (setting [3]) it was 180 nM; at HLA-A*0206 (setting [4]), 841 nM; at HLA-A*0203 (setting [5]), 201 nM.
As for VLAEAMSQT, the IC50 on HLA-A*6802 was 447 nM; against HLA-A*0202, 2.2 nM; against HLA-A*0201, 290 nM; against HLA-A*0206, 236 nM; at HLA-A*0203, 0.65 nM.
For LTFGWCFKV, the IC50 is 9.7 nM against HLA-A*6802; 33 nM against HLA-A*0202; 15 nM against HLA-A*0201; 187 nM against HLA-A*0206; 1170 nM against HLA-A*0203.
For FAPGFFPYL, the IC50 was 7.6 nM at HLA-A*6802 (setting [1]); 0.85 nM on HLA-A*0202 (setting [2]); 48 nM on HLA-A*0201 (setting [3]); 2.3 nM on HLA-A*0206 (setting [4]); 44 nM on HLA-A*0203 (setting [5]).
Regarding ILWQVDRM, the concentration for half-maximal inhibition (IC50) on HLA-A*6802 was above 19500 nM; against HLA-A*0202, 67 nM; on HLA-A*0201, 1750 nM; at HLA-A*0206, 11300 nM; at HLA-A*0203, 3000 nM.
Consider LQLPPLERLTV, for which the IC50 on HLA-A*6802 is above 61100 nM; on HLA-A*0202, 4540 nM; against HLA-A*0201, 159 nM; against HLA-A*0206 it was 52 nM; against HLA-A*0203 it was 6270 nM.
Consider VLAEAMATA, for which the IC50 was 33 nM at HLA-A*6802 (setting [1]); 1.4 nM on HLA-A*0202 (setting [2]); 6.7 nM on HLA-A*0201 (setting [3]); 8.6 nM on HLA-A*0206 (setting [4]); 0.73 nM at HLA-A*0203 (setting [5]).
For MTGNPPVPV, in that order: 0.84 nM, 158 nM, 2020 nM, 35 nM and 23 nM.
The corresponding values for YVDDVVLGV are 354 nM, 14 nM, 18 nM, 16 nM and 70 nM.
Take SLLNGPGPGV: the IC50 at HLA-A*6802 (setting [1]) stood at 45 nM; at HLA-A*0202 (setting [2]) it was 3.8 nM; at HLA-A*0201 (setting [3]), 65 nM; at HLA-A*0206 (setting [4]), 63 nM; at HLA-A*0203 (setting [5]), 14 nM.
With MTGNPSIPV, the IC50 is 0.57 nM on HLA-A*6802; 1.1 nM against HLA-A*0202; 16 nM at HLA-A*0201; 257 nM on HLA-A*0206; 0.43 nM at HLA-A*0203.
KLTPLCVSL: the IC50 on HLA-A*6802 (setting [1]) worked out at 5950 nM; on HLA-A*0202 (setting [2]), 2.4 nM; at HLA-A*0201 (setting [3]) it was 67 nM; on HLA-A*0206 (setting [4]) it was 16 nM; at HLA-A*0203 (setting [5]) it was 240 nM.
For the molecule WLNYTPGPGT, the IC50 was 11800 nM on HLA-A*6802; 124 nM against HLA-A*0202; 547 nM on HLA-A*0201; above 31600 nM against HLA-A*0206; 231 nM at HLA-A*0203.
